Earlier results as cited in patent US11234935B2, “Method of inducing satiety” (PERORA GMBH, priority 2015, dated 2022).

Conditions: rat feeding study; independent from intake

true digestibility of stearic acid from tristearin: 0.15 g/g
Compound: CCCCCCCCCCCCCCCCCC(=O)OCC(COC(=O)CCCCCCCCCCCCCCCCC)OC(=O)CCCCCCCCCCCCCCCCC [tristearin]
